# Measured values published in patent US12083115B2, “Methods for treating neurological symptoms associated with lysosomal storage diseases” (Genzyme Corporation, priority 2020, dated 2024).
# What was measured:
# [1] = tested on: adult patients with Gaucher disease Type 3; experiment: Clinical study in GD-3 patients: resting-state fMRI connectivity; type: in vivo, human
# Method: During the study patients were evaluated for safety and tolerability, CSF and plasma biomarkers (glucosylceramide, GL-1; glucosylsphingosine, lyso-GL1), pharmacokinetics, markers for systemic disease (spleen and liver volume measured by magnetic resonance imaging (MRI), platelet count, hemoglobin levels), indicia of interstitial lung disease (high resolution pulmonary computed tomography (CT)), and horizontal saccadic eye movement. In addition, exploratory biomarkers were quantified in CSF of GD3 patients: ceramide (the precursor of GL-1), chitotriosidase (CHITO), GM3, and GPNMB. Symptoms of ataxia were measured using the SARA scale, neurological symptoms were measured using the trail making test, and functional MRI was used to assess neural connectivity in the brain.
# Neurological function was further evaluated using functional magnetic resonance imaging (fMRI). Patient 2 was excluded because no fMRI data was collected at the Week 52 session. Resting-state fMRI screening sessions were performed at baseline screening, Week 26, and Week 52 visits. Connectivity estimates from four subjects (Patients 1, 3, 4, and […]) were entered into second-level analyses as a “compliant” group. Patient 5 was isolated due to likely non-compliance with study medication, as described above. Analyses were performed as described elsewhere (Smith et al. [2009]).
# Spatial analysis of the connectivity between different anatomic regions of the brain is performed to define a correlation coefficient for regressed voxelwise mean intensity.
# The results are summarized in the table below for all patients for RSNs 3 and 6 (RSNs 4 and 8 are not included) for the change in correlation coefficient between baseline and 52 weeks (as noted supra, Patient 2 is excluded because of lack of data).
# [2] = tested on: plasma GL-1 (glucosylceramide); experiment: Study 2: plasma GL-1 pharmacodynamics; type: in vivo, human
# Method: (§1) The study enrolled and randomized 36 healthy adults (19 men and 17 women) (n=9 each to group).
# (§2) Pharmacodynamic endpoints (plasma GL-1, GL-3, and GM3 concentrations) were assessed on Days 1-5, 8, 11, 13, and 14, at 0 hours […]; and on Day 15, at 24 hours after the Day 14 dose.
# [3] = tested on: plasma GL-3 (globotriaosylceramide); experiment: Study 2: plasma GL-3 pharmacodynamics; type: in vivo, human
# Method: as §1, §2
# [4] = tested on: plasma GM3 (GM3 ganglioside); experiment: Study 2: plasma GM3 pharmacodynamics; type: in vivo, human
# Method: as §1, §2
# [5] = tested on: healthy, human volunteers; experiment: Phase 1 studies: safety profile; type: in vivo
# Method: Compound 2 is also known as venglustat.
# In all studies, safety profile was assessed by monitoring treatment-emergent adverse events (TEAEs) through 10 days after last dose of study medication, including serious adverse events [SAEs]), ECG monitoring, laboratory values, and physical examinations.
# [6] = tested on: adult patients with Gaucher disease Type 3; experiment: Clinical study in GD-3 patients: ataxia, SARA scale; type: in vivo, human; parameters: key to SARA Cumulative Score, Average Score excluding Patient 4 / SARA Cumulative Score / SARA Cumulative Score, Average Score: SARA, eight ataxia attributes summed, 0-40 scale; conditions: for SARA Cumulative Score: 15 mg/day + imiglucerase; for SARA Cumulative Score, Average Score: screening 2.83
smiles,measurement,setting,value
"CC(C)(NC(=O)O[C@@H]1CN2CCC1CC2)c1csc(-c2ccc(F)cc2)n1 [Compound 2, (S)-quinuclidin-3-yl 2-(2-(4-fluorophenyl)thiazol-4-yl)propan-2-ylcarbamate]",Change in Correlation Coefficient,"[1]; Patient 1, RSNs 3 and 6, baseline to 52 weeks",0.359
same,Change in Correlation Coefficient,"[1]; Patient 1, default mode (resting) network vs executive function network, first interim analysis",+0.20
same,Change in Correlation Coefficient,"[1]; Patient 3, RSNs 3 and 6, baseline to 52 weeks",0.383
same,Change in Correlation Coefficient,"[1]; Patient 3, default mode (resting) network vs executive function network, first interim analysis",+0.20
same,Change in Correlation Coefficient,"[1]; Patient 4, RSNs 3 and 6, baseline to 52 weeks",0.201
same,Change in Correlation Coefficient,"[1]; Patient 4, default mode (resting) network vs executive function network, first interim analysis",+0.20
same,Change in Correlation Coefficient,"[1]; Patient 5 (insufficient Compound 2 exposure), RSNs 3 and 6, baseline to 52 weeks",−0.173
same,Change in Correlation Coefficient,"[1]; Patient 5 (likely non-compliance), default mode (resting) network vs executive function network, first interim analysis",−0.13
same,Change in Correlation Coefficient,"[1]; Patient 6, RSNs 3 and 6, baseline to 52 weeks",0.779
same,Change in Correlation Coefficient,"[1]; Patient 6, default mode (resting) network vs executive function network, first interim analysis",+0.70
same,Change in Correlation Coefficient,"[1]; Patient 7, RSNs 3 and 6, baseline to 52 weeks",−0.013
same,Change in Correlation Coefficient,"[1]; Patient 8, RSNs 3 and 6, baseline to 52 weeks",−0.058
same,Change in Correlation Coefficient,"[1]; Patient 9, RSNs 3 and 6, baseline to 52 weeks",−0.302
same,Change in Correlation Coefficient,"[1]; Patient 10, RSNs 3 and 6, baseline to 52 weeks",0.105
same,Change in Correlation Coefficient,"[1]; Patient 11, RSNs 3 and 6, baseline to 52 weeks",0.035
same,connectivity between default mode and medial frontal networks (fMRI),"[1]; every subject except Patient 5, first interim analysis",enhanced connectivity
same,"connectivity between RSNs 1, 2 and 3 and RSNs 6, 7 and 8 (fMRI)","[1]; patients with sufficient Compound 2 exposure, second interim analysis",enhanced connectivity
same,Mean estimated plasma GL-1 reduction from baseline attributable to Compound 2 Ctrough,"[2]; 5 mg dose group, Ctrough 19.0 ng/mL, 90% CI 54.4-79.7%",67.0%
same,Mean estimated plasma GL-1 reduction from baseline attributable to Compound 2 Ctrough,"[2]; 10 mg dose group, Ctrough 47.5 ng/mL, 90% CI 63.7-85.2%",74.4%
same,Mean estimated plasma GL-1 reduction from baseline attributable to Compound 2 Ctrough,"[2]; 20 mg dose group, Ctrough 69.9 ng/mL, 90% CI 64.8-87.8%",76.3%
same,day of maximal sustained effects on GL-1,[2]; 5- and 10-mg groups,11 days
same,day of maximal sustained effects on GL-1,[2]; 20-mg group,≤ 8 days
same,Mean calculated GL-1 reduction from baseline,"[2]; Day 15, 5-mg group",41.9%
same,subjects with GL-1 values below LLOQ,"[2]; Day 15, 5-mg group (n=9)",3 subjects
same,Mean calculated GL-1 reduction from baseline,"[2]; Day 15, 10-mg group",69.6%
same,subjects with GL-1 values below LLOQ,"[2]; Day 15, 10-mg group (n=9)",5 subjects
same,Mean calculated GL-1 reduction from baseline,"[2]; Day 15, 20-mg group",74.6%
same,subjects with GL-1 values below LLOQ,"[2]; Day 15, 20-mg group (n=9)",9 subjects
same,subjects with GL-3 values below LLOQ,"[3]; Day 15, 5-mg dose group (3 at baseline)",9 subjects
same,subjects with GL-3 values below LLOQ,"[3]; Day 15, 10-mg dose group (1 at baseline)",7 subjects
same,subjects with GL-3 values below LLOQ,"[3]; Day 15, 20-mg dose group (6 at baseline)",9 subjects
same,Plasma GL-3 over time,"[3]; all Compound 2 dose groups, low baseline values relative to LLOQ",decreased with time
same,"Mean plasma GM3 level, % of baseline","[4]; Day 15, 5-mg dose group",42.7 % of baseline
same,"Mean plasma GM3 level, % of baseline","[4]; Day 15, 10-mg dose group",49.4 % of baseline
same,subjects with GM3 below the LLOQ,"[4]; Day 15, 10-mg dose group",1 subjects
same,"Mean plasma GM3 level, % of baseline","[4]; Day 15, 20-mg dose group",57.8 % of baseline
same,subjects with GM3 below the LLOQ,"[4]; Day 15, 20-mg dose group",2 subjects
same,start day of maximal sustained GM3 decreases,[4]; all Compound 2 dose groups,13 days
same,Vital signs,[5]; all Phase 1 studies,no relevant changes from baseline
same,hematologic or biochemical abnormalities,[5]; all Phase 1 studies,No clinically relevant hematologic or biochemical abnormalities
same,"deaths, SAEs, severe TEAEs, TEAEs leading to study discontinuation","[5]; all Phase 1 studies, through 10 days after last dose","no deaths, SAEs, severe TEAEs, or TEAEs leading to study discontinuation"
same,ECG parameters,"[5]; single ascending dose and food effect studies, multiple dose study: no statistically significant change versus placebo",no relevant changes
same,patients with positive correlation between reduction in CSF GL-1 and SARA score,"[6]; 52 weeks, 11 patients",8 of 11
same,patients showing improvements in ataxia,"[6]; 52 weeks, N = 6, 15 mg/day + imiglucerase",5 of 6
same,SARA Cumulative Score,"[6]; Patient 1, Week 26, screening 3.0",1.0
same,SARA Cumulative Score,"[6]; Patient 2, Week 26, screening 3.0",2.0
same,SARA Cumulative Score,"[6]; Patient 2, Week 52, screening 3.0",1.5
same,SARA Cumulative Score,"[6]; Patient 3, Week 26, screening 3.5",0.0
same,SARA Cumulative Score,"[6]; Patient 3, Week 52, screening 3.5",0.0
same,SARA stance score,"[6]; Patient 4, Week 26 (baseline 1)",1
same,SARA Cumulative Score,"[6]; Patient 4, Week 26, screening 3.0",5.0
same,SARA stance score,"[6]; Patient 4, Week 52 (baseline 1; left knee pain, injured toe)",5
same,SARA Cumulative Score,"[6]; Patient 6, Week 26, screening 4.0",2.0
same,SARA Cumulative Score,"[6]; Patient 6, Week 52, screening 4.0",3.0
same,SARA Cumulative Score,"[6]; Patient 7, Week 26, screening 5.5",7.5
same,SARA Cumulative Score,"[6]; Patient 7, Week 52, screening 5.5",5.0
same,SARA Cumulative Score,"[6]; Patient 8, Week 26, screening 2.0",0.5
same,SARA Cumulative Score,"[6]; Patient 8, Week 52, screening 2.0",0
same,SARA Cumulative Score,"[6]; Patient 9, Week 26, screening 0.0",0.0
same,SARA Cumulative Score,"[6]; Patient 9, Week 52, screening 0.0",0.0
same,SARA Cumulative Score,"[6]; Patient 10, Week 26, screening 2.0",2.0
same,SARA Cumulative Score,"[6]; Patient 10, Week 52, screening 2.0",1.0
same,SARA Cumulative Score,"[6]; Patient 11, Week 26, screening 3.0",3.0
same,SARA Cumulative Score,"[6]; Patient 11, Week 52, screening 3.0",2.0
same,"SARA Cumulative Score, Average Score","[6]; Patients 1-6, Week 26",1.67
same,"SARA Cumulative Score, Average Score","[6]; Patients 1-6, Week 52",2.00
same,"SARA Cumulative Score, Average Score excluding Patient 4","[6]; Week 26, screening 2.80",1.00
same,patients exhibiting an improvement in ataxia,"[6]; Week 52, Excluding Patient 5",4 out of 5
same,patients exhibiting an improvement in ataxia,"[6]; Week 52, five new patients excluding Patient 9",4 out of 4
same,gait on videotaped straight-line walk,"[6]; two patients, week 26 and week 52 compared to baseline","steadier, better coordinated, and faster gait"
